The record followed here is patent publication US20260232691A1, “NBD1 MODULATORS AND METHODS OF USING THE SAME” (Sionna Therapeutics Inc., priority 2023, published 2026).

The test system of assay [1] is NBD1. Description: Aggregation analysis using differential static light scattering (DSLS), thermal stability of NBD1. In kind it is binding, Human. The note with it: 100 μM compound; ΔTagg = Tagg minus average Tagg of DMSO control wells; purified recombinant NBD1. The procedure: Purified recombinant NBD1 was produced using previously described methods (A. Schmidt, J. L. Mendoza, P. J. Thomas (2011) Biochemical and Biophysical Approaches to Probe CFTR Structure (365-376) M. D. Amaral, K. Kunzelmann (eds.), Cystic Fibrosis, Methods in Molecular Biology 741, Springer Science+Business Media). The effect of test compounds on thermal stability of NBD1 was evaluated by differential static light scattering (DSLS) using the Harbinger Stargazer-384 instrument (Epiphyte Three, Toronto, Canada). Test compounds were dissolved and diluted to desired concentrations in 100% DMSO. The compounds or DMSO controls (100 nL) were stamped into wells of a […] low volume optical plate (Corning Inc., Corning, NY) using the Echo 555 acoustic liquid handler (Labcyte Inc., San Jose, CA).
NBD1 protein was diluted to 0.2 mg/ml in S200 buffer (50 mM Tris-HCl, 150 mM NaCl, 5 mM MgCl2, 2 mM ATP, 2 mM DTT, pH7.6) containing 1% glycerol. 10 uL of protein solution was aliquoted into the 384-well plate harboring the test compounds and 10 uL mineral oil was overlayed onto the protein solution, using the epMotion robotic liquid handler (Eppendorf North America, Hauppauge, NY). After placing into the Stargazer instrument, the plate was heated at 1° C. per minute to 70° C. Images were captured from 25° C. to 70° C. every 0.5° C. At the end of the experiment run, instrument software integrated image files and analyzed data automatically. A […] regression curve was generated for each well, representing the increase in light scattering over time. A temperature of aggregation (Tagg) was calculated based on the inflection point of the curve. To better compare data across experiments the average Tagg for DMSO control wells was calculated and subtracted from values for wells containing compounds to obtain a “ΔTagg” value. These ΔTagg values reflect stabilizing efficacy of the compounds.

For assay [2], the target named is T1, CFTR (primary human bronchial epithelial cells from a ΔF508 homozygous CF donor, CF-HBE cells) (Homo sapiens, UniProt P13569, DEL508-508).
T1 construct: Primary human bronchial epithelial cells from a ΔF508 homozygous CF donor; host or cells: primary human bronchial epithelial cells (CF-HBE), ΔF508/ΔF508 donor
T1 sequence (P13569 with tags, fused parts or gaps DEL508-508): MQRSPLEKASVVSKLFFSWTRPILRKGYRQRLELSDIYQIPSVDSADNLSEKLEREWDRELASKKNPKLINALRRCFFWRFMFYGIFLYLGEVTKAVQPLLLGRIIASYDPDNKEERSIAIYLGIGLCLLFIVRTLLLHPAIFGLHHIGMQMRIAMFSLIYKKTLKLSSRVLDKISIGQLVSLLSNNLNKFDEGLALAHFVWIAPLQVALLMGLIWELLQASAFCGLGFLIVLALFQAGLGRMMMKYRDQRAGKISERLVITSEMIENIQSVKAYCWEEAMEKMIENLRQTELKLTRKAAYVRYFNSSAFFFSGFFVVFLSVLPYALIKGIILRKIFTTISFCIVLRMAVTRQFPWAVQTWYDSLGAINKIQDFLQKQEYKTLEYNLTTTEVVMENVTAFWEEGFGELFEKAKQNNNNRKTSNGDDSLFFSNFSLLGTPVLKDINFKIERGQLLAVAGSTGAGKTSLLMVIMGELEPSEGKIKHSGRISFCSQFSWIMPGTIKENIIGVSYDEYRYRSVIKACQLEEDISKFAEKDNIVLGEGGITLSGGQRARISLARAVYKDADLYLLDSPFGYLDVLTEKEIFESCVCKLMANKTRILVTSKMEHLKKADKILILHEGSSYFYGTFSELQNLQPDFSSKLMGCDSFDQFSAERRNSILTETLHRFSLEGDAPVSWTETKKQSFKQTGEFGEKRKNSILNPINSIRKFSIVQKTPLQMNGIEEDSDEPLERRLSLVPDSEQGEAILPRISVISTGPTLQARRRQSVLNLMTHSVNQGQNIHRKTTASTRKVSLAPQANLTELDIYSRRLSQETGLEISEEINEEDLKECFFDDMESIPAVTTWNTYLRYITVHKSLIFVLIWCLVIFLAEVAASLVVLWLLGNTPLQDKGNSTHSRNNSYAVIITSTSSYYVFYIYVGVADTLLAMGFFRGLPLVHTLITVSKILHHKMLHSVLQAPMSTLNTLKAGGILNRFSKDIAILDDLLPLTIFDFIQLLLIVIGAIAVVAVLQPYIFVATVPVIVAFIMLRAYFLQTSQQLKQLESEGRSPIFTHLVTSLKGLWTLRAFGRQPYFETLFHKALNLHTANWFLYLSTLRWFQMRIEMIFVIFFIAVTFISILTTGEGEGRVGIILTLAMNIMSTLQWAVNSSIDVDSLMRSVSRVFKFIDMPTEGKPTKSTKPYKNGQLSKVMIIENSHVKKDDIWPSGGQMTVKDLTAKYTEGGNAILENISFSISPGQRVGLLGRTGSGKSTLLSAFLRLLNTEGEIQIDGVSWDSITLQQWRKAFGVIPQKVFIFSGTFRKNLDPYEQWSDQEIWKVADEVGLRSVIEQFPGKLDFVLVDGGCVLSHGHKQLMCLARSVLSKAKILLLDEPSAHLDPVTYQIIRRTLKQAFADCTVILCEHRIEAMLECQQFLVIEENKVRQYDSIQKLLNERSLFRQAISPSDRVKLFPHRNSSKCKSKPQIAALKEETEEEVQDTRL
The assay is described as follows: TECC24 recording of CFTR-mediated transepithelial chloride transport, AUC fold over DMSO. In kind it is cell-based. To be noted: test agent AUC of forskolin-stimulated IEQ divided by vehicle (DMSO) AUC, 48 hours incubation. The method, then: The effects of a test agent on CFTR-mediated transepithelial chloride transport was measured using TECC24 recording analysis. Test agents were solubilized in DMSO. Solubilized test agents were mixed with incubation medium containing DMEM/F12, Ultroser G (2%; Crescent Chemical, catalog #67042), Hyclone Fetal Clone II (2%; GE Healthcare, catalog #SH30066.02), bovine brain extract (0.25%; Lonza, catalog #CC-4098), insulin ([…]), IL-13 (10 ng/mL), hydrocortisone (20 nM), transferrin ([…]), triiodothyronine (500 nM), ethanolamine (250 nM), epinephrine (1.5 μM), phosphoethanolamine (250 nM), and retinoic acid (10 nM). Primary human bronchial epithelial cells from a ΔF508 homozygous CF donor (CF-HBE cells; from University of North Carolina Cystic Fibrosis Tissue Procurement Center), grown on Transwell HTS 24-well cell culture inserts (Costar, catalog #3378), were exposed to test agents or controls dissolved in incubation medium. The CF-HBE cells were cultured at 36.5° C. for 48 hours before TECC24 recordings were performed in the presence or absence of test agent, a positive control or vehicle (DMSO).
Following incubation, the transwell cell culture inserts containing the test agent or control-treated CF-HBE cells were loaded onto a TECC24 apparatus (TECC v7 or MTECC v2; EP Design) to record the transepithelial voltage (VT) and resistance (TEER) using 4 AgCl electrodes per well configured in current-clamp mode. The apical and basolateral bath solutions both contained (in mM) 140 NaCl, 5 KCl, 2 CaCl2), 1 MgCl2, 10 Hepes, and 10 glucose (adjusted to pH 7.4 with NaOH). To inhibit basal Na+ absorption, the ENaC inhibitor benzamil (10 μM) was added to the bath. Then, the adenylate cyclase activator, forskolin (10 μM), was added to the bath to activate CFTR. The forskolin-stimulated Cl—transport was halted by addition of CFTR inhibitor-172 (20 μM) to the bath at the end of the experiment to confirm specificity. VT and TEER recordings were digitally acquired at routine intervals using TECC or MTECC software (EP Design). VT and TEER were transformed into equivalent transepithelial Cl—current (IEQ), and the Area Under the Curve (AUC) of the IEQ time course between forskolin and CFTR inhibitor-172 addition is generated using Excel (Microsoft). Efficacy is expressed as the ratio of the test agent AUC divided by vehicle AUC. EC50s based on AUC are generated using the non-linear regression log(agonist) vs. response function in Prism software (Graphpad) with HillSlope fixed=1.
If a test agent increased the AUC of the forskolin-stimulated IEQ relative to vehicle in CF-HBE cells, and this increase was inhibited by CFTR inhibitor-172, then the test agent was considered a CFTR corrector.

As to `C[C@@H](c1cccc(CC(=O)O)c1F)c1cnc2n1CCc1ccc(Oc3c(F)cc4[nH]ccc4c3F)cc1-2` (single isomer, unassigned) [Example 1], the “DSLS NBD1/3D Human Stability delta-T (° C.) @ 100 (μM)” value (from here on “DSLS NBD1/3D Human Stability delta-T”) in assay [1] was “A (A: T ≥ 8° C.)”.
For the compound `C[C@H](c1cccc(CC(=O)O)c1F)c1cnc2n1CCc1ccc(Oc3c(F)cc4[nH]ccc4c3F)cc1-2` (single isomer, unassigned) [Example 2], the “DSLS NBD1/3D Human Stability delta-T” value in assay [1] is “A (A: T ≥ 8° C.)”.
As for `C[C@@H](c1cccc(CCC(=O)O)c1F)c1cnc2n1CCc1ccc(Oc3c(F)cc4[nH]ccc4c3F)cc1-2` (single isomer, unassigned) [Example 5], in assay [1], the “DSLS NBD1/3D Human Stability delta-T” value is reported as “B (B: 4-8° C.)”. Further, in assay [2], the “TECC24 @ 10 uM over DMSO” value is recorded as “C (“C” refers to AUC @10 uM <= 4)”.
On to `C[C@H](c1cccc(CCC(=O)O)c1F)c1cnc2n1CCc1ccc(Oc3c(F)cc4[nH]ccc4c3F)cc1-2` (single isomer, unassigned) [Example 6], for which the “DSLS NBD1/3D Human Stability delta-T” value in assay [1] was “A (A: T ≥ 8° C.)”. Moreover, the “TECC24 @ 10 uM over DMSO” value in assay [2] is “A (“A” refers to AUC @10 uM >= 12)”.
Take `CC(c1nc2n(n1)CC(O)COc1ccc(Oc3c(F)cc4[nH]ccc4c3F)cc1-2)c1cccc(CCC(=O)O)c1F` (single isomer, unassigned) [Example 13, 3-[3-[1-[14-[(4,6-difluoro-1H-indol-5-yl)oxy]-8-hydroxy-10-oxa-3,5,6-triazatricyclo[9.4.0.02,6]pentadeca-1(15),2,4,11,13-pentaen-4-yl]ethyl]-2-fluoro-phenyl]propanoic acid]: the “DSLS NBD1/3D Human Stability delta-T” value in assay [1] is on record as “A (A: T ≥ 8° C.)”. In assay [2], the “TECC24 @ 10 uM over DMSO” value is reported as “C (“C” refers to AUC @10 uM <= 4)”.
For the compound `CC(c1nc2n(n1)CC(O)COc1ccc(Oc3c(F)cc4[nH]ccc4c3F)cc1-2)c1cccc(CCC(=O)O)c1F` (single isomer, unassigned) [Example 14, 3-[3-[1-[14-[(4,6-difluoro-1H-indol-5-yl)oxy]-8-hydroxy-10-oxa-3,5,6-triazatricyclo[9.4.0.02,6]pentadeca-1(15),2,4,11,13-pentaen-4-yl]ethyl]-2-fluoro-phenyl]propanoic acid], the “DSLS NBD1/3D Human Stability delta-T” value in assay [1] is “A (A: T ≥ 8° C.)”. Besides, the “TECC24 @ 10 uM over DMSO” value in assay [2] is “B (“B” refers to AUC @ 10 uM between 4-12)”.
As to `CC(c1nc2n(n1)CCOc1ccc(Oc3c(F)cc4[nH]ccc4c3F)cc1-2)c1cccc(CCC(=O)O)c1F` (single isomer, unassigned) [Example 15, 3-[3-[1-[10-[(4,6-difluoro-1H-indol-5-yl)oxy]-5,6-dihydro-[1,2,4]triazolo[1,5-d][1,4]benzoxazepin-2-yl]ethyl]-2-fluoro-phenyl]propanoic acid], in assay [1], the “DSLS NBD1/3D Human Stability delta-T” value is on record as “A (A: T ≥ 8° C.)”. Also, the “TECC24 @ 10 uM over DMSO” value in assay [2] is given as “A (“A” refers to AUC @10 uM >= 12)”.
In the case of `CC(c1nc2n(n1)CCOc1ccc(Oc3c(F)cc4[nH]ccc4c3F)cc1-2)c1cccc(CCC(=O)O)c1F` (single isomer, unassigned) [Example 16, 3-[3-[1-[10-[(4,6-difluoro-1H-indol-5-yl)oxy]-5,6-dihydro-[1,2,4]triazolo[1,5-d][1,4]benzoxazepin-2-yl]ethyl]-2-fluoro-phenyl]propanoic acid], the “DSLS NBD1/3D Human Stability delta-T” value in assay [1] was “C (C: ≤ 4° C.)”.
Take `CC(c1cccc(CC(=O)O)c1F)c1cnc2c3cc(Oc4c(F)cc5[nH]ccc5c4F)ccc3ccn12` (stereo not shown) [Example 3, 2-(3-(1-(9-((4,6-difluoro-1H-indol-5-yl)oxy)imidazo[2,1-a]isoquinolin-3-yl)ethyl)-2-fluorophenyl)acetic acid]: in assay [1], the “DSLS NBD1/3D Human Stability delta-T” value is “A (A: T ≥ 8° C.)”. In addition, in assay [2], the “TECC24 @ 10 uM over DMSO” value is given as “A (“A” refers to AUC @10 uM >= 12)”.
In the case of `O=C(O)CCc1cccc(Cc2nc3n(n2)Cc2ccc(Oc4c(F)cc5[nH]ccc5c4F)cc2-3)c1F` [Example 4, 3-(3-((8-((4,6-difluoro-1H-indol-5-yl)oxy)-5H-triazolo[5,1-a]isoindol-2-yl)methyl)-2-fluorophenyl)propanoic acid], the “DSLS NBD1/3D Human Stability delta-T” value in assay [1] was “B (B: 4-8° C.)”. The “TECC24 @ 10 uM over DMSO” value in assay [2] is recorded as “B (“B” refers to AUC @ 10 uM between 4-12)”.
As for `CC(c1cccc(CCC(=O)O)c1F)c1cnc2c3cc(Oc4c(F)cc5[nH]ccc5c4F)ccc3ccn12` (stereo not shown) [Example 7, 3-(3-(1-(9-((4,6-difluoro-1H-indol-5-yl)oxy)imidazo[2,1-a]isoquinolin-3-yl)ethyl)-2-fluorophenyl)propanoic acid], the “DSLS NBD1/3D Human Stability delta-T” value in assay [1] is reported as “A (A: T ≥ 8° C.)”.
Consider `CC(c1cn2c(n1)-c1cc(Oc3c(F)cc4[nH]ccc4c3F)ccc1CCC2)c1cccc(CCC(=O)O)c1F` (stereo not shown) [Example 8, 3-(3-(1-(10-((4,6-difluoro-1H-indol-5-yl)oxy)-6,7-dihydro-5H-benzo[c]imidazo[1,2-a]azepin-2-yl)ethyl)-2-fluorophenyl)propanoic acid], for which the “DSLS NBD1/3D Human Stability delta-T” value in assay [1] is recorded as “A (A: T ≥ 8° C.)”.
The same measure, in the same setting: with `CC(c1nc2n(n1)CCCc1ccc(Oc3c(F)cc4[nH]ccc4c3F)cc1-2)c1cccc(CCC(=O)O)c1F` (stereo not shown) [Example 9, 3-(3-(1-(10-((4,6-difluoro-1H-indol-5-yl)oxy)-6,7-dihydro-5H-benzo[c][1,2,4]triazolo[1,5-a]azepin-2-yl)ethyl)-2-fluorophenyl)propanoic acid] the entry was “B (B: 4-8° C.)”.
Consider `COC(=O)CCc1cccc(C(C)c2nc3n(n2)CCCOc2ccc(Oc4c(F)cc5[nH]ccc5c4F)cc2-3)c1F` (stereo not shown) [Example 10, methyl 3-(3-(1-(11-((4,6-difluoro-1H-indol-5-yl)oxy)-6,7-dihydro-5H-benzo[b][1,2,4]triazolo[5,1-d][1,5]oxazocin-2-yl)ethyl)-2-fluorophenyl)propanoate], for which, in assay [1], the “DSLS NBD1/3D Human Stability delta-T” value is reported as “C (C: ≤ 4° C.)”. Besides, in assay [2], the “TECC24 @ 10 uM over DMSO” value was “C (“C” refers to AUC @10 uM <= 4)”.
Take `CC(c1nc2n(n1)CCCOc1ccc(Oc3c(F)cc4[nH]ccc4c3F)cc1-2)c1cccc(CCC(=O)O)c1F` (stereo not shown) [Example 11, 3-[3-[1-[14-[(4,6-difluoro-1H-indol-5-yl)oxy]-10-oxa-3,5,6-triazatricyclo[9.4.0.02,6]pentadeca-1(15),2,4,11,13-pentaen-4-yl]ethyl]-2-fluoro-phenyl]propanoic acid]: in assay [1], the “DSLS NBD1/3D Human Stability delta-T” value is on record as “A (A: T ≥ 8° C.)”. For the same compound, in assay [2], the “TECC24 @ 10 uM over DMSO” value is “C (“C” refers to AUC @10 uM <= 4)”.
`CC(c1nc2n(n1)CC(CO)Oc1ccc(Oc3c(F)cc4[nH]ccc4c3F)cc1-2)c1cccc(CCC(=O)O)c1F` (stereo not shown) [Example 12, 3-[3-[1-[10-[(4,6-difluoro-1H-indol-5-yl)oxy]-6-(hydroxymethyl)-5,6-dihydro-[1,2,4]triazolo[1,5-d][1,4]benzoxazepin-2-yl]ethyl]-2-fluoro-phenyl]propanoic acid]: in assay [1], the “DSLS NBD1/3D Human Stability delta-T” value is “A (A: T ≥ 8° C.)”.
